# Source: US10729135B2, “Methods of controlling pests using terpendoles” (priority 2017, dated 2020)
# Where two headings read alike, the source gives them in different places.
# Legend:
# Test in all cases: whole plant or invertebrate
# Format in all cases: in vivo
# [1] = test system: foxglove aphid (Aulacorthum solani)
# Description: (§1) A bioefficacy assay utilizing terpendole C was conducted on the lepidopterans: diamondback moth (Plutella xylostella) and common cutworm (Spodoptera litura): the whitefly, tobacco whitefly (Bemisia tabaci) the thrips, western flower thrips (Frankliniella occidentalis); the planthopper, brown rice planthopper (Nilaparvata lugens); the aphids, cotton aphid (Aphis gossypii), foxglove aphid (Aulacorthum solani), cabbage aphid (Brevicoryne brassicae), birdcherry-oat aphid (Rhopalosiphum padi), green peach aphid (Myzus persicae); and the mite, two-spotted spider mite (Tetranychus urticae). Specifically, terpendole C was diluted with acetone and 5% Tween® 20 and finally diluted with water to prepare spray solutions. Terpendole C was then applied to plants as a foliar spray at 500, 200, 50, 12.5, 3.1, 1, 0.8 and/or 0.2 ppm and/or as a soil treatment at 2,500, 1,000, 250, 63, 16, 4 and/or 1 ppm. Pests were then placed on the plant or in the soil. Further, mortality and appetite suppression were recorded at 6, 7 and/or 13 days after treatment (“DAT”) and are reported in Tables 2 and 3, below, respectively.
# [2] = test system: green peach aphid (Myzus persicae)
# Description: as §1
# [3] = test system: tobacco whitefly (Bemisia tabaci)
# Description: as §1
# [4] = test system: two-spotted spider mite (Tetranychus urticae); settings: Kidney Bean, All stages; for mortality at 12.5 ppm / mortality at 50 ppm / mortality at 200 ppm / mortality at 500 ppm: Tetranychus urticae, read-out: Mortality score; on Appetite suppression score: key: 0 = no to little suppression; 1 = about 10% suppression; 2 = about 25% suppression; 3 = about 60% suppression; 4 = 70-100% suppression
# Description: as §1
# [5] = test system: western flower thrips (Frankliniella occidentalis)
# Description: as §1
smiles,measurement,setting,value
"CC(C)=C[C@H]1O[C@H]2[C@H]3O[C@@]34[C@H](CC[C@@]3(C)[C@@]4(O)CC[C@H]4Cc5c([nH]c6ccccc56)[C@@]43C)O[C@@H]2C(C)(C)O1 [Terpendole C, terpendole C]",Appetite suppression score,"[1]; 200 ppm, Kidney Bean, Adult, 6 DAT",0
same,Appetite suppression score,"[1]; 500 ppm, Kidney Bean, Adult, 6 DAT",2 (2 = about 25% suppression)
same,mortality at 12.5 ppm,"[1]; Aulacorthum solani, 144 h, 12.5 ppm, Kidney Bean, Adult, 6 DAT, read-out: Mortality score",< 29%
same,mortality at 50 ppm,"[1]; Aulacorthum solani, 144 h, 50 ppm, Kidney Bean, Adult, 6 DAT, read-out: Mortality score",< 29%
same,mortality at 200 ppm,"[1]; Aulacorthum solani, 144 h, 200 ppm, Kidney Bean, Adult, 6 DAT, read-out: Mortality score (converted)",50%
same,mortality at 500 ppm,"[1]; Aulacorthum solani, 144 h, 500 ppm, Kidney Bean, Adult, 6 DAT, read-out: Mortality score (converted)",75%
same,control of foxglove aphids (in words),[1]; summary of Table 2,effectively controlled
same,mortality at 0.8 ppm,"[2]; Myzus persicae, 144 h, 0.8 ppm, Cabbage, All stages, 6 DAT, read-out: Mortality score",< 29%
same,mortality at 3.1 ppm,"[2]; Myzus persicae, 144 h, 3.1 ppm, Cabbage, All stages, 6 DAT, read-out: Mortality score (converted)",50%
same,mortality at 12.5 ppm,"[2]; Myzus persicae, 144 h, 12.5 ppm, Cabbage, All stages, 6 DAT, read-out: Mortality score (converted)",75%
same,mortality at 50 ppm,"[2]; Myzus persicae, 144 h, 50 ppm, Cabbage, All stages, 6 DAT, read-out: Mortality score (converted)",90%
same,mortality at 200 ppm,"[2]; Myzus persicae, 144 h, 200 ppm, Cabbage, All stages, 6 DAT, read-out: Mortality score (converted)",100%
same,control of green peach aphids (in words),[2]; summary of Table 2,effectively controlled
same,Mortality score,"[3]; 12.5 ppm, Cabbage, 1st instar, 7 DAT",0-2
same,mortality at 0.8 ppm,"[3]; Bemisia tabaci, 168 h, 0.8 ppm, Cabbage, 1st instar, 7 DAT, read-out: Mortality score",< 29%
same,mortality at 1 ppm,"[3]; Bemisia tabaci, 168 h, 1 ppm, Cabbage, 1st instar, 7 DAT, read-out: Mortality score (converted)",50%
same,mortality at 3.1 ppm,"[3]; Bemisia tabaci, 168 h, 3.1 ppm, Cabbage, 1st instar, 7 DAT, read-out: Mortality score (converted)",50%
same,mortality at 50 ppm,"[3]; Bemisia tabaci, 168 h, 50 ppm, Cabbage, 1st instar, 7 DAT, read-out: Mortality score",< 29%
same,mortality at 200 ppm,"[3]; Bemisia tabaci, 168 h, 200 ppm, Cabbage, 1st instar, 7 DAT, read-out: Mortality score",< 29%
same,mortality at 500 ppm,"[3]; Bemisia tabaci, 168 h, 500 ppm, Cabbage, 1st instar, 7 DAT, read-out: Mortality score",< 29%
same,control of the whitefly (in words),[3]; summary of results,significantly controlled
same,Appetite suppression score,"[4]; 12.5 ppm, 7 DAT",0
same,Appetite suppression score,"[4]; 12.5 ppm, 13 DAT",0
same,Appetite suppression score,"[4]; 50 ppm, 7 DAT",0
same,Appetite suppression score,"[4]; 50 ppm, 13 DAT",0
same,Appetite suppression score,"[4]; 200 ppm, 7 DAT",0
same,Appetite suppression score,"[4]; 200 ppm, 13 DAT",0
same,Appetite suppression score,"[4]; 500 ppm, 7 DAT",0
same,Appetite suppression score,"[4]; 500 ppm, 13 DAT",0
same,mortality at 12.5 ppm,"[4]; 168 h, 12.5 ppm, 7 DAT",< 29%
same,mortality at 50 ppm,"[4]; 168 h, 50 ppm, 7 DAT",< 29%
same,mortality at 200 ppm,"[4]; 168 h, 200 ppm, 7 DAT",< 29%
same,mortality at 500 ppm,"[4]; 168 h, 500 ppm, 7 DAT",< 29%
same,mortality at 12.5 ppm,"[4]; 312 h, 12.5 ppm, 13 DAT",< 29%
same,mortality at 50 ppm,"[4]; 312 h, 50 ppm, 13 DAT",< 29%
same,mortality at 200 ppm,"[4]; 312 h, 200 ppm, 13 DAT",< 29%
same,mortality at 500 ppm,"[4]; 312 h, 500 ppm, 13 DAT",< 29%
same,Appetite suppression score,"[5]; 12.5 ppm, Kidney Bean, 1st-2nd instar, 6 DAT",3-4
same,Appetite suppression score,"[5]; 50 ppm, Kidney Bean, 1st-2nd instar, 6 DAT",3-4
same,Appetite suppression score,"[5]; 200 ppm, Kidney Bean, 1st-2nd instar, 6 DAT",3-4
same,Appetite suppression score,"[5]; 500 ppm, Kidney Bean, 1st-2nd instar, 6 DAT",3-4
same,mortality at 0.2 ppm,"[5]; Frankliniella occidentalis, 144 h, 0.2 ppm, Kidney Bean, 1st-2nd instar, 6 DAT, read-out: Mortality score",< 29%
same,mortality at 0.8 ppm,"[5]; Frankliniella occidentalis, 144 h, 0.8 ppm, Kidney Bean, 1st-2nd instar, 6 DAT, read-out: Mortality score",< 29%
same,mortality at 3.1 ppm,"[5]; Frankliniella occidentalis, 144 h, 3.1 ppm, Kidney Bean, 1st-2nd instar, 6 DAT, read-out: Mortality score",< 29%
same,mortality at 12.5 ppm,"[5]; Frankliniella occidentalis, 144 h, 12.5 ppm, Kidney Bean, 1st-2nd instar, 6 DAT, read-out: Mortality score",< 29%
same,mortality at 50 ppm,"[5]; Frankliniella occidentalis, 144 h, 50 ppm, Kidney Bean, 1st-2nd instar, 6 DAT, read-out: Mortality score",< 29%
same,mortality at 200 ppm,"[5]; Frankliniella occidentalis, 144 h, 200 ppm, Kidney Bean, 1st-2nd instar, 6 DAT, read-out: Mortality score",< 29%
same,mortality at 500 ppm,"[5]; Frankliniella occidentalis, 144 h, 500 ppm, Kidney Bean, 1st-2nd instar, 6 DAT, read-out: Mortality score",< 29%
same,control of the thrips (in words),[5]; summary of results,significantly controlled
